# Test results: PubChem BioAssay (NCI)
#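 A five-concentration, 48-hour dose response in 96-well plates underlies each endpoint, interpolated linearly between surrounding concentrations. The concentration for 50% growth inhibition is given as GI50. TGI marks complete inhibition of growth.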
# Legend:
# Assay in all cases: inhibition of tumour cell growth, NCI panel, 48 h
# K-562 leukemia = tested on: K-562 leukemia
# DU-145 prostate = tested on: DU-145 prostate
# NCI-H23 lung = tested on: NCI-H23 lung
# MDA-MB-435 = tested on: MDA-MB-435
# SW-620 colon = tested on: SW-620 colon
# UACC-62 melanoma = tested on: UACC-62 melanoma
# EKVX NSCLC = tested on: EKVX NSCLC
# 786-0 renal = tested on: 786-0 renal
# ACHN renal = tested on: ACHN renal
# CCRF-CEM leukemia = tested on: CCRF-CEM leukemia
# NCI-H522 lung = tested on: NCI-H522 lung
# HCT-15 colon = tested on: HCT-15 colon
# A549 NSCLC = tested on: A549 NSCLC
# A498 renal = tested on: A498 renal
# OVCAR-5 ovarian = tested on: OVCAR-5 ovarian
# M14 melanoma = tested on: M14 melanoma
# IGROV1 ovarian = tested on: IGROV1 ovarian
# SF-268 CNS = tested on: SF-268 CNS
# TK-10 renal = tested on: TK-10 renal
# PC-3 prostate = tested on: PC-3 prostate
# COLO 205 colon = tested on: COLO 205 colon
# MDA-MB-231 breast = tested on: MDA-MB-231 breast
# SN12C renal = tested on: SN12C renal
# MALME-3M melanoma = tested on: MALME-3M melanoma
# NCI/ADR-RES ovarian = tested on: NCI/ADR-RES ovarian
# UO-31 renal = tested on: UO-31 renal
# OVCAR-8 ovarian = tested on: OVCAR-8 ovarian
# CAKI-1 renal = tested on: CAKI-1 renal
# SF-295 CNS = tested on: SF-295 CNS
# HOP-92 NSCLC = tested on: HOP-92 NSCLC
# HT29 colon = tested on: HT29 colon
# MOLT-4 leukemia = tested on: MOLT-4 leukemia
# NCI-H226 lung = tested on: NCI-H226 lung
# HL-60(TB) leukemia = tested on: HL-60(TB) leukemia
# OVCAR-4 ovarian = tested on: OVCAR-4 ovarian
# UACC-257 melanoma = tested on: UACC-257 melanoma
# SR leukemia = tested on: SR leukemia
# SK-MEL-28 melanoma = tested on: SK-MEL-28 melanoma
# MCF7 breast = tested on: MCF7 breast
# HCT-116 colon = tested on: HCT-116 colon
# OVCAR-3 ovarian = tested on: OVCAR-3 ovarian
# HCC-2998 colon = tested on: HCC-2998 colon
# RPMI-8226 leukemia = tested on: RPMI-8226 leukemia
# SF-539 CNS = tested on: SF-539 CNS
# RXF 393 renal = tested on: RXF 393 renal
# T-47D breast = tested on: T-47D breast
# SK-MEL-2 melanoma = tested on: SK-MEL-2 melanoma
# HOP-62 NSCLC = tested on: HOP-62 NSCLC
# SNB-19 CNS = tested on: SNB-19 CNS
# SNB-75 CNS = tested on: SNB-75 CNS
# NCI-H460 lung = tested on: NCI-H460 lung
# LOX IMVI melanoma = tested on: LOX IMVI melanoma
# KM12 colon = tested on: KM12 colon
# SK-MEL-5 melanoma = tested on: SK-MEL-5 melanoma
# U251 CNS = tested on: U251 CNS
# HS 578T breast = tested on: HS 578T breast
smiles,measurement,setting,value
COc1cc2c3c(n(CCCn4ccnc4)c(=O)c2cc1OC)-c1cc2c(cc1C3=O)OCO2,GI50,K-562 leukemia,12.2 nM
same,GI50,DU-145 prostate,< 10 nM
same,TGI,DU-145 prostate,> 100000 nM
same,GI50,NCI-H23 lung,16.2 nM
same,TGI,NCI-H23 lung,164 nM
same,GI50,MDA-MB-435,72.8 nM
same,TGI,MDA-MB-435,1670 nM
same,GI50,SW-620 colon,< 10.9 nM
same,TGI,SW-620 colon,> 100000 nM
same,GI50,UACC-62 melanoma,< 10 nM
same,TGI,UACC-62 melanoma,93.7 nM
same,GI50,EKVX NSCLC,1100 nM
same,TGI,EKVX NSCLC,> 20900 nM
same,GI50,786-0 renal,< 10 nM
same,TGI,786-0 renal,91.7 nM
same,GI50,ACHN renal,< 10 nM
same,TGI,ACHN renal,> 100000 nM
same,GI50,CCRF-CEM leukemia,< 10 nM
same,TGI,CCRF-CEM leukemia,< 10 nM
same,GI50,NCI-H522 lung,369 nM
same,TGI,NCI-H522 lung,> 100000 nM
same,GI50,HCT-15 colon,824 nM
same,TGI,HCT-15 colon,> 100000 nM
same,GI50,A549 NSCLC,52.8 nM
same,TGI,A549 NSCLC,> 100000 nM
same,GI50,A498 renal,20.3 nM
same,TGI,A498 renal,87.8 nM
same,GI50,OVCAR-5 ovarian,141 nM
same,TGI,OVCAR-5 ovarian,8330 nM
same,GI50,M14 melanoma,< 10 nM
same,TGI,M14 melanoma,100 nM
same,GI50,IGROV1 ovarian,959 nM
same,TGI,IGROV1 ovarian,> 100000 nM
same,GI50,SF-268 CNS,< 10 nM
same,TGI,SF-268 CNS,> 100000 nM
same,GI50,TK-10 renal,2220 nM
same,TGI,TK-10 renal,> 100000 nM
same,GI50,PC-3 prostate,1280 nM
same,TGI,PC-3 prostate,> 100000 nM
same,GI50,COLO 205 colon,312 nM
same,TGI,COLO 205 colon,> 100000 nM
same,GI50,MDA-MB-231 breast,347 nM
same,TGI,MDA-MB-231 breast,3570 nM
same,GI50,SN12C renal,< 10 nM
same,TGI,SN12C renal,182 nM
same,GI50,MALME-3M melanoma,791 nM
same,TGI,MALME-3M melanoma,> 31500 nM
same,GI50,NCI/ADR-RES ovarian,28.5 nM
same,TGI,NCI/ADR-RES ovarian,3590 nM
same,GI50,UO-31 renal,< 26.9 nM
same,TGI,UO-31 renal,> 48300 nM
same,GI50,OVCAR-8 ovarian,280 nM
same,TGI,OVCAR-8 ovarian,> 100000 nM
same,GI50,CAKI-1 renal,< 10 nM
same,TGI,CAKI-1 renal,27 nM
same,GI50,SF-295 CNS,< 10 nM
same,TGI,SF-295 CNS,1210 nM
same,TGI,HOP-92 NSCLC,> 100000 nM
same,GI50,HT29 colon,94.8 nM
same,TGI,HT29 colon,> 100000 nM
same,GI50,MOLT-4 leukemia,< 10 nM
same,TGI,MOLT-4 leukemia,< 10 nM
same,GI50,NCI-H226 lung,< 13.5 nM
same,TGI,NCI-H226 lung,160 nM
same,GI50,HL-60(TB) leukemia,< 10 nM
same,TGI,HL-60(TB) leukemia,< 19.5 nM
same,GI50,OVCAR-4 ovarian,2900 nM
same,TGI,OVCAR-4 ovarian,> 100000 nM
same,GI50,UACC-257 melanoma,1200 nM
same,TGI,UACC-257 melanoma,26800 nM
same,GI50,SR leukemia,< 10 nM
same,TGI,SR leukemia,< 10 nM
same,GI50,SK-MEL-28 melanoma,> 100000 nM
same,TGI,SK-MEL-28 melanoma,> 100000 nM
same,GI50,MCF7 breast,< 12.9 nM
same,TGI,MCF7 breast,> 100000 nM
same,GI50,HCT-116 colon,< 10 nM
same,TGI,HCT-116 colon,148 nM
same,GI50,OVCAR-3 ovarian,79.5 nM
same,TGI,OVCAR-3 ovarian,804 nM
same,GI50,HCC-2998 colon,< 10 nM
same,TGI,HCC-2998 colon,34.5 nM
same,GI50,RPMI-8226 leukemia,< 10 nM
same,TGI,RPMI-8226 leukemia,153 nM
same,GI50,SF-539 CNS,< 19.3 nM
same,GI50,RXF 393 renal,> 100000 nM
same,TGI,RXF 393 renal,> 100000 nM
same,GI50,T-47D breast,< 10 nM
same,TGI,T-47D breast,< 10 nM
same,GI50,SK-MEL-2 melanoma,> 100000 nM
same,TGI,SK-MEL-2 melanoma,> 100000 nM
same,GI50,HOP-62 NSCLC,< 10 nM
same,TGI,HOP-62 NSCLC,153 nM
same,GI50,SNB-19 CNS,35.8 nM
same,TGI,SNB-19 CNS,> 100000 nM
same,GI50,SNB-75 CNS,34.5 nM
same,TGI,SNB-75 CNS,> 100000 nM
same,GI50,NCI-H460 lung,< 10 nM
same,TGI,NCI-H460 lung,> 21700 nM
same,GI50,LOX IMVI melanoma,< 10 nM
same,TGI,LOX IMVI melanoma,171 nM
same,GI50,KM12 colon,142 nM
same,TGI,KM12 colon,9320 nM
same,GI50,SK-MEL-5 melanoma,18.5 nM
same,TGI,SK-MEL-5 melanoma,133 nM
same,GI50,U251 CNS,< 10 nM
same,TGI,U251 CNS,1030 nM
same,GI50,HS 578T breast,> 100000 nM
same,TGI,HS 578T breast,> 100000 nM
